Data as given in US12195479B2, “Five- and six-membered compound, and preparation method therefor and pharmaceutical composition and use thereof” (HANGZHOU POLYMED BIOPHARMACEUTICALS, INC., priority 2021, dated 2025).

Experiments:
IRAK4 kinase = molecular target: T1, IRAK4 kinase (Homo sapiens, UniProt Q9NWZ3); assay: Kinase inhibition, fluorescence microfluidic mobility shift assay (IRAK4); type: biochemical; conditions: substrate peptide FAM-P8 3 μM, ATP 10 μM; one hour at 28° C.; assayed in duplicate
T1 sequence (Q9NWZ3 1-460): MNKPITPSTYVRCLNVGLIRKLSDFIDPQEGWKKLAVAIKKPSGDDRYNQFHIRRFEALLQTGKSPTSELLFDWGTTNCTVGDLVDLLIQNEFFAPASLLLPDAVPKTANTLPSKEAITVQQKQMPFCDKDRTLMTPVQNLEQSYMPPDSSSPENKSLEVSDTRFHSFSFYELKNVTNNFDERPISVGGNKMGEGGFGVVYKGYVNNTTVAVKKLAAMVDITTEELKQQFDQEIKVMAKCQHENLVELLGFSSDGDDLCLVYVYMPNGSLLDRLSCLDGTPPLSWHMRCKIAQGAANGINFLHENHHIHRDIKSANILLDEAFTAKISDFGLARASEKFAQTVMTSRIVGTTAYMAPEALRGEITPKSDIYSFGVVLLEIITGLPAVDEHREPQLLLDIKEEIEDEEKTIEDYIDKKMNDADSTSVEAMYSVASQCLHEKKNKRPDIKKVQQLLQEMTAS

FLT3 kinase = molecular target: T2, FLT3 kinase (Homo sapiens, UniProt P36888); assay: Kinase inhibition, fluorescence microfluidic mobility shift assay (FLT3); type: biochemical; conditions: substrate peptide FAM-P2 3 μM, ATP 97 μM; one hour at 28° C.; assayed in duplicate
T2 sequence (P36888 564-993): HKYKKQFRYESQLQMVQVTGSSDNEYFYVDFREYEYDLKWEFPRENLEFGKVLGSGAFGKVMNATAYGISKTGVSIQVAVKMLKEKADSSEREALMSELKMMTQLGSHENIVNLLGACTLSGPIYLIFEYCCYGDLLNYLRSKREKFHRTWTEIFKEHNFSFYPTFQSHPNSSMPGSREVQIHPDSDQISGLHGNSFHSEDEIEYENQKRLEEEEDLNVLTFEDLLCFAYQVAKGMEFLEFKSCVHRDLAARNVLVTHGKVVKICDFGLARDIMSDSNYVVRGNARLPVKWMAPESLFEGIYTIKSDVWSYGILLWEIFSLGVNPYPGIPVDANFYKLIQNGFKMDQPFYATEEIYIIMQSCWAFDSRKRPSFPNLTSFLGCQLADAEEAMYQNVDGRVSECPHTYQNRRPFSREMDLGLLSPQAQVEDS
Method: Based on the experimental method of fluorescence microfluidic mobility shift assay, the IC50 value of the compound for competitive binding of ATP to kinases IRAK4 and FLT3 was determined. The initial detection concentration of the compound was 10 μM, which was diluted to 0.38 nM with a 4-fold gradient and assayed in duplicate. In this case, commercially available staurosporine was the standard control for the assay.
Information on reagents and consumables is as follows: • IRAK4 kinase (Carna, Cat. No. 09-145, Lot. No. 14CBS-0020 H) • FLT3 kinase (Carna, Cat. No. 08-154, Lot. No. 07CBS-2350) • Substrate peptide FAM-P2 (GL Biochem, Cat. No. 112394, Lot. No. P131014-XP112394) • Substrate peptide FAM-P8 (GL Biochem, Cat. No. 112396, Lot. No. P170731-SY112396) • ATP (adenosine triphosphate, Sigma, Cat. No. A7699-1G, CAS No. 987-65-5) • DMSO (dimethyl sulfoxide, Sigma, Cat. No. D2650) • EDTA (ethylenediaminetetraacetic acid, Sigma, Cat. No. E5134, CAS No. 60-00-4) • Staurosporine (Selleckchem, Cat. No. 51421) • HEPES (4-(2-Hydroxyethyl)-1-piperazineethanesulfonic acid, Gibco, Cat. No. 15630-080) • Brij-35 solution (Polyoxyethylene lauryl ether, Sigma, Cat. No. B41840-100 mL) • DTT (dithiothreitol, Sigma, Cat. No. D0632-20G) • 0.2% Coating Reagent #3 (0.2% coating reagent, Perkin Elmer, Cat. No. 760050) • 96-well plate (Corning, Cat. No. 3365) • 384-well plate (Corning, Cat. No. 3573) Experimental operation method: • 1) FLT3 and IRAK4 kinases were dissolved in the kinase buffer (50 mM HEPES pH 7.5, 10 mM MgCl2, 2 mM DTT, and 0.01% Brij-35) at final concentrations of 0.9 nM, 30 nM, and 6 nM, respectively. • 2) The substrate peptide FAM-P2 and the substrate peptide FAM-P8, together with ATP, were dissolved in the above kinase buffer, respectively, where the final concentrations of the substrate peptide FAM-P2 and ATP for the determination of FLT3 were 3 μM and 97 μM, respectively; and the final concentrations of the substrate peptide FAM-P8 and ATP for the determination of IRAK4 were 3 μM and 10 μM, respectively. • 3) Compound dilution: The compound was first diluted to 50 μM, and then diluted downward with DMSO in a 4-fold gradient. In this case, the solution without compound and kinase served as the blank control, corresponding to the “minimum value” shown below; the solution without compound but containing kinase, adenosine triphosphate, DMSO, and the buffer served as the positive control, corresponding to the “maximum value” shown below. • 4) Kinase reaction and termination: 10 μL of the kinase buffer was added to a 384-well plate containing 5 μL of the compound to be tested, and the mixture was incubated for 10 minutes at room temperature; another 10 μL, of buffer containing the substrate peptide and adenosine triphosphate was added to the 384-well plate, and after incubation for one hour at 28° C., 25 μL, of termination solution (100 mM HEPES pH 7.5, 50 mM EDTA, 0.2% Coating Reagent #3, and 0.015% Brij-35) was added to each well for reaction termination. • 5) Data reading: CaliperEZ Reader II instrument was used to read the conversion rate data. Setting conditions: downstream voltage as −500 V, upstream voltage as −2250 V, base pressure as −0.5 PSI, and screening pressure as −1.2 PSI. • 6) Data calculation: the conversion rate data was copied from CaliperEZ Reader II, and the conversion rate was converted into inhibition rate data.

MV4-11 cells = assay: Cytotoxicity against MV4-11 cells (CellTiter-Glo); type: cell-based; conditions: Homo sapiens, incubated for 72 hours, CellTiter-Glo chemiluminescence
Method: Determination of the IC50 Value of the Compound's Cytotoxicity Against MV4-11 Cells
MV-4-11 cells were cultured with IMDM complete medium (IMDM+10% fetal bovine serum+1% Penicillin-Streptomycin, a mixture of penicillin-streptomycin). • 2. MV-4-11 cells in good condition were collected and washed twice with DPBS ([…] phosphate buffered saline solution). • 3. MV-4-11 cells were resuspended with IMDM complete medium, the cell density was adjusted to 1.11×10^6 cells/mL, and the MV-4-11 cells were added to 96-well plates at 90 μL per well. • 4. A compound solution with 10-fold concentration was prepared with IMDM complete medium, 10 μL of the compound solution with 10-fold concentration was added to the cells in the 96-well plate, mixed well, and then the 96-well plate was placed in a 5% CO2 incubator at 37° C. and incubated for 72 hours. • 5. After the incubation, the 96-well plate was taken out and equilibrated for 30 minutes at room temperature. Then 100 μL of CellTiter Glo reagent was added to each well and mixed on a horizontal shaker for 2 minutes. • 6. The 96-well plate was removed, equilibrated at room temperature for 10 minutes, and the chemiluminescence value was detected on a microplate reader.

| Structure (SMILES) | IC50 (IRAK4 kinase) | IC50 (FLT3 kinase) | IC50 (MV4-11 cells) |
| --- | --- | --- | --- |
| Cc1cc(-c2nc(C(=O)Nc3cc4cn(CCN5CC6(COC6)C5)nc4cc3C(C)(C)O)co2)ccn1 [II-51] | 6.5 nM | 0.32 nM | 16 nM |
| Cc1cc(-c2nc(C(=O)Nc3cc4cn(CCC5CCNC5=O)nc4cc3C(C)(C)O)co2)ccn1 (stereo not shown) [II-1] | 11 nM | 0.34 nM | 19.4 nM |
| COc1cc2nn(CCC3CCNC3=O)cc2cc1NC(=O)c1coc(-c2ccnc(C)c2)n1 (stereo not shown) [II-2] | 8.4 nM | 0.52 nM | 14.8 nM |
| Cc1cc(-c2nc(C(=O)Nc3cc4cn(CCC5CCNC5=O)nc4cc3OC3COC3)co2)ccn1 (stereo not shown) [II-64] | 4.5 nM |  | 1.3 nM |
| Cc1cc(-c2nc(C(=O)Nc3cc4cn(C5CC6CCC(C5)N6C)nc4cc3C(C)(C)O)co2)ccn1 (stereo not shown) [II-101] | 22 nM | 0.48 nM | 7 nM |
| CC(C)(O)CCc1cc2cc(NC(=O)c3coc(-c4ccnc(C(F)(F)F)c4)n3)c(C(C)(C)O)cn2n1 [II-92] | 4.86 nM | 15.5 nM | 63.2 nM |
| COc1cc2nn(C3CCNCC3)cc2cc1NC(=O)c1coc(N2CCN(C(C)=O)CC2)n1 [II-6] | 178 nM |  |  |
| Cc1cc(-c2nc(C(=O)Nc3cc4cc(CCC(C)(C)O)nn4cc3C(C)(C)O)co2)ccn1 [II-28] | 16 nM | 0.79 nM | 3.1 nM |
| Cc1cc(-c2nc(C(=O)Nc3cc4sc(N5CCOCC5)nc4nc3C(C)(C)O)co2)ccn1 [II-124] | 4.8 nM | 0.31 nM | 5 nM |
| COc1cc2nc(C3CCNCC3)cn2cc1NC(=O)c1coc(-c2ccnc(C)c2)n1 [II-15C] | 6.5 nM | 1.3 nM | 8.2 nM |
| CC(C)N1CCC(n2cc3cc(NC(=O)c4coc(-c5ccnc(C(F)(F)F)c5)n4)c(C(C)(C)O)cc3n2)CC1 [II-113F] | 4.6 nM | 0.38 nM | 6 nM |
| CC(C)(O)c1cc2nn(C3CCOCC3)cc2cc1NC(=O)c1coc(-c2ccnc(C(F)(F)F)c2)n1 [II-121] | 9.1 nM | 3.5 nM | 33 nM |
| COc1cn2nc(C3CCNCC3)cc2cc1NC(=O)c1coc(-c2ccnc(C)c2)n1 [II-3F] | 6 nM | 2.3 nM | 15 nM |
| COc1cc2nn(C3CCNCC3)cc2cc1NC(=O)c1coc(-c2ccccc2)n1 [II-9C] | 9.4 nM |  |  |
| COc1cc2nn(C3CCNCC3)cc2cc1NC(=O)c1coc(-c2ccnc(C(F)(F)F)c2)n1 [II-13C] | 6.4 nM | 0.44 nM | 14.6 nM |
| COc1cc2nn(CCC3CCNC3=O)cc2cc1NC(=O)c1coc(Br)n1 (stereo not shown) [II-4] | 72 nM | 12 nM |  |
| [2H]C([2H])([2H])C(O)(CCn1cc2cc(NC(=O)c3coc(-c4ccnc(C(F)(F)F)c4)n3)c(C(C)(C)O)cc2n1)C([2H])([2H])[2H] [II-117] | 5.54 nM | 4 nM | 23.2 nM |
| Cc1cc(-c2nc(C(=O)Nc3cc4cn(CC5(F)COC5)nc4cc3C(C)(C)O)co2)ccn1 [II-115] | 11 nM | 0.25 nM | 2.5 nM |
| CC(C)(O)CCn1cc2cc(NC(=O)c3coc(-c4ccnc(C(F)(F)F)c4)n3)c(C(C)(C)O)nc2n1 [II-131] | 20 nM |  |  |
| Cc1cc(-c2nc(C(=O)Nc3cc4sc(N5CCOCC5)nc4cc3N3CCC(O)C3)co2)ccn1 (stereo not shown) [II-133] | 4.84 nM | 0.26 nM | 0.2 nM |

| Structure (SMILES) | IC50 (IRAK4 kinase) | IC50 (FLT3 kinase) | IC50 (MV4-11 cells) |
| --- | --- | --- | --- |
| Cc1cc(-n2ccc(C(=O)Nc3cc4oc(N5CCOCC5)nc4nc3N3CCC(O)C3)n2)ccn1 (stereo not shown) [II-123] | 122 nM |  |  |
| COc1cc2nn(C3CCNCC3)cc2cc1NC(=O)c1nc(-c2ccnc(C)c2)c[nH]1 [II-5C] | 3.5 nM | 0.19 nM | 0.78 nM |
| Cc1cc(-c2nc(C(=O)Nc3cc4cn(CCN5CCC(F)(F)C5)nc4cc3C(C)(C)O)co2)ccn1 [II-97] | 6.9 nM | 0.53 nM | 13.7 nM |
| Cc1cc(-c2nc(C(=O)Nc3cc4cn(C5CCS(=O)(=O)CC5)nc4cc3C(C)(C)O)co2)ccn1 [II-57] | 6.5 nM | 0.3 nM | 13 nM |
| Cc1cc(-c2nc(C(=O)Nc3cc4oc(N5CC6CC5CO6)nc4nc3N3CCC(O)C3)co2)ccn1 (stereo not shown) [II-125] | 82 nM |  |  |
| Cc1cc(-c2nc(C(=O)Nc3cc4oc(N5CCN(CC(F)(F)F)CC5)nc4nc3N3CCC(O)C3)co2)ccn1 (stereo not shown) [II-128] | 44 nM | 13 nM |  |
| Cc1cc(-c2nc(C(=O)Nc3cc4cn(C5CCNCC5)nc4cc3OC(C)C)co2)ccn1 [II-14C] | 7.5 nM | 0.72 nM | 0.25 nM |
| COc1cc2nn(C3CCNCC3)cc2cc1NC(=O)c1coc(-c2ccnc(C(F)F)c2)n1 [II-94C] | 8 nM | 0.44 nM | 10.6 nM |
| COc1cc2nn(CCC3CCNC3=O)cc2cc1NC(=O)c1coc(-c2ccnc(C(F)(F)F)c2)n1 (stereo not shown) [II-8] | 25 nM | 9.5 nM |  |
| Cc1cc(-c2nc(C(=O)Nc3cc4oc(N5CCOCC5)nc4cc3N3CCC(O)C3)co2)ccn1 (stereo not shown) [II-132] | 7.18 nM | 0.35 nM | 1.2 nM |
| Cc1cc(-c2nc(C(=O)Nc3cc4cn(C5CC6CCC(C5)O6)nc4cc3C(C)(C)O)co2)ccn1 (stereo not shown) [II-114] | 5.9 nM | 0.26 nM | 1.3 nM |
| Cc1cc(-c2nc(C(=O)Nc3cc4cn(C5CCOCC5)nc4cc3C(C)(C)O)co2)ccn1 [II-56] | 3.4 nM | 0.24 nM | 4.6 nM |
| CC(C)c1cc(-c2nc(C(=O)Nc3cc4cn(CCC(C)(C)O)nc4cc3C(C)(C)O)co2)ccn1 [II-104] | 5.3 nM | 2.31 nM | 21 nM |
| COc1cc2nn(C3CCNCC3)cc2cc1NC(=O)c1coc(N2CCS(=O)(=O)CC2)n1 [II-7C] | 94 nM | 100 nM |  |
| Cc1cc(-c2nc(C(=O)Nc3cc4cn(C5CC(C)(C)OC(C)(C)C5)nc4cc3C(C)(C)O)co2)ccn1 [II-116] | 7.54 nM |  | 27.3 nM |
| Cc1cc(-c2nc(C(=O)Nc3cc4cn(CCN5CC6CC5CO6)nc4cc3C(C)(C)O)co2)ccn1 (stereo not shown) [II-110] | 8.16 nM | 0.36 nM |  |
| Cc1cc(-c2nc(C(=O)Nc3cc4cn(CC5(F)CN(C(=O)OC(C)(C)C)C5)nc4cc3C(C)(C)O)co2)ccn1 [II-107] | 9.22 nM | 0.73 nM |  |
| Cc1cc(-c2nc(C(=O)Nc3cc4oc(N5CCC(C(F)(F)F)CC5)nc4nc3N3CCC(O)C3)co2)ccn1 (stereo not shown) [II-130] | 26 nM | 8.9 nM |  |
| CC(C)(O)CCn1cc2cc(NC(=O)c3ccn(-c4ccnc(C(F)(F)F)c4)n3)c(C(C)(C)O)cc2n1 [II-105] | 2.63 nM | 39 nM |  |
